The values that follow are results of earlier work, collected in patent US11559637B2, “Inhalers and related methods” (Norton (Waterford) Limited, priority 2017, dated 2023).

The structures appear in SMILES notation.

For `FCC(F)(F)F` [HFA134a, 1,1,1,2-tetrafluoroethane], the surface tension entry (as liquid at 25° C.) is given as “about 8 mN/m”. Moreover, the vapor pressure (at 20° C.) is given as 572 kpa.
